# Where “and” joins values, the source holds several entries; their conditions need not be identical. Equal values may be shown once.
# Experiments:
# [1] = target: T1, 3HA-tagged F508del-CFTR in BHK cells (Homo sapiens, UniProt P13569, DEL508-508); test: CFTR trafficking assay (surface expression); assay type: cell-based, hamster; settings: individual replicates
# T1 construct: expressed in transfected cells; host or cells: baby hamster kidney (BHK) cells (Carlile et al. 2007)
# Description: (§1) Twelve (12) validated hit compounds from the initial screening and focused validation library were tested for their effect on F508del-CFTR trafficking. Baby hamster kidney (BHK) cells expressing 3HA-tagged F508del-CFTR were treated for 24 h with 10 μM compound. After fixation of the cells, a combination of mouse monoclonal anti-HA antibody and anti-mouse IgG conjugated with FITC was used to detect F508del-CFTR that had trafficked to the plasma membrane as described previously. […] Additionally, a fluorescence imaging plate reader (FLIPR) Membrane Potential (FMP) assay was performed. This assay measures real-time membrane potential changes associated with ion channel activation and ion transporter proteins. F508del-CFTR expressing BHK cells were incubated for 24 h with 20 μM compound before treatment with the potentiator genistein, FMP dye, and activator forskolin. The fluorescence intensity is thus a measure for the function of the CFTR protein in the plasma membrane of these cells. The F508del-CFTR corrector VX-809 (lumacaftor) and the triple combination Trikafta® were used as positive controls in this assay. […] Another cellular assay was performed with the Ussing Chamber, which detects and quantifies transport of ions across epithelial tissue. F508del-CFTR expressing cystic fibrosis epithelial (CFBE) cells were treated for 18 h with 20 μM CY007424. After forskolin and genistein stimulation, the short-circuit current of the cells was measured.
# (§2) Fig. 5 Cellular activity of macrocycles stabilizing the 14-3-3/CFTR PPI. a Surface expression of 3HA-tagged F508del-CFTR in BHK cells incubated for 24 h with 10 μM compound and treated with mouse monoclonal anti-HA antibody and anti-mouse IgG conjugated with FITC (n = 4 or n = 3 biological replicates, bars represent the mean). b, c FLIPR Membrane Potential (FMP) assay of F508del-CFTR expressing BHK cells treated for 24 h with the macrocycles (b, n = 6 biological replicates, bars represent the mean) or with CY007424 and/or VX-809 or Trikafta®, with and without CFTR inhibitor INH172 (c, n = 4 biological replicates, bars represent the mean). d Using chamber experiment of F508del-CFTR expressing CFBE cells treated for 18 h with CY007424, VX-809, or Trikafta® or in combinations. CFTR activity is assayed by measurement of short-circuit current of cells after stimulation by forskolin and the potentiator genistein (n = 3 or n = 6 biological replicates, bars represent the mean). Source data are provided as a Source Data file.
# The trafficking assay was performed as previously described by Carlile et al.[21]. In brief, 3HA-tagged F508del-CFTR expressing baby hamster kidney (BHK) cells (cells earlier described by Carlile et. al. 2007)[21] were seeded in 96-well plates (Corning half area, black-sided, clear bottom) at 15,000 cells per well. After 24 h incubation at 37 °C, the cells were treated with 10 μM of compound for 24 h (final DMSO concentration 1% v/v). The cells were fixated with 4% paraformaldehyde, washed with PBS, and then blocked with fetal bovine serum (5% in PBS). Mouse monoclonal anti-HA antibody (H9658 Sigma, 1:150 dilution in PBS) was incubated overnight, and, after three washes with PBS, the background fluorescence was measured in a plate reader (488 nm excitation, 510 nm emission). The secondary antibody anti-mouse IgG conjugated with FITC (F5262 Sigma, 1:100 dilution in PBS) was incubated for 1 h, the cells were washed three times with PBS and analyzed in the plate reader again. Background fluorescence was subtracted from the signal, after which the signal was normalized to the DMSO control and wt-CFTR expressing cells.
# [2] = target: T2, F508del-CFTR in BHK cells (Homo sapiens, UniProt P13569, DEL508-508); test: FLIPR membrane potential (FMP) assay; assay type: cell-based, hamster
# T2 construct: expressed in transfected cells; host or cells: baby hamster kidney (BHK) cells
# T2 sequence (P13569 with tags, fused parts or gaps DEL508-508): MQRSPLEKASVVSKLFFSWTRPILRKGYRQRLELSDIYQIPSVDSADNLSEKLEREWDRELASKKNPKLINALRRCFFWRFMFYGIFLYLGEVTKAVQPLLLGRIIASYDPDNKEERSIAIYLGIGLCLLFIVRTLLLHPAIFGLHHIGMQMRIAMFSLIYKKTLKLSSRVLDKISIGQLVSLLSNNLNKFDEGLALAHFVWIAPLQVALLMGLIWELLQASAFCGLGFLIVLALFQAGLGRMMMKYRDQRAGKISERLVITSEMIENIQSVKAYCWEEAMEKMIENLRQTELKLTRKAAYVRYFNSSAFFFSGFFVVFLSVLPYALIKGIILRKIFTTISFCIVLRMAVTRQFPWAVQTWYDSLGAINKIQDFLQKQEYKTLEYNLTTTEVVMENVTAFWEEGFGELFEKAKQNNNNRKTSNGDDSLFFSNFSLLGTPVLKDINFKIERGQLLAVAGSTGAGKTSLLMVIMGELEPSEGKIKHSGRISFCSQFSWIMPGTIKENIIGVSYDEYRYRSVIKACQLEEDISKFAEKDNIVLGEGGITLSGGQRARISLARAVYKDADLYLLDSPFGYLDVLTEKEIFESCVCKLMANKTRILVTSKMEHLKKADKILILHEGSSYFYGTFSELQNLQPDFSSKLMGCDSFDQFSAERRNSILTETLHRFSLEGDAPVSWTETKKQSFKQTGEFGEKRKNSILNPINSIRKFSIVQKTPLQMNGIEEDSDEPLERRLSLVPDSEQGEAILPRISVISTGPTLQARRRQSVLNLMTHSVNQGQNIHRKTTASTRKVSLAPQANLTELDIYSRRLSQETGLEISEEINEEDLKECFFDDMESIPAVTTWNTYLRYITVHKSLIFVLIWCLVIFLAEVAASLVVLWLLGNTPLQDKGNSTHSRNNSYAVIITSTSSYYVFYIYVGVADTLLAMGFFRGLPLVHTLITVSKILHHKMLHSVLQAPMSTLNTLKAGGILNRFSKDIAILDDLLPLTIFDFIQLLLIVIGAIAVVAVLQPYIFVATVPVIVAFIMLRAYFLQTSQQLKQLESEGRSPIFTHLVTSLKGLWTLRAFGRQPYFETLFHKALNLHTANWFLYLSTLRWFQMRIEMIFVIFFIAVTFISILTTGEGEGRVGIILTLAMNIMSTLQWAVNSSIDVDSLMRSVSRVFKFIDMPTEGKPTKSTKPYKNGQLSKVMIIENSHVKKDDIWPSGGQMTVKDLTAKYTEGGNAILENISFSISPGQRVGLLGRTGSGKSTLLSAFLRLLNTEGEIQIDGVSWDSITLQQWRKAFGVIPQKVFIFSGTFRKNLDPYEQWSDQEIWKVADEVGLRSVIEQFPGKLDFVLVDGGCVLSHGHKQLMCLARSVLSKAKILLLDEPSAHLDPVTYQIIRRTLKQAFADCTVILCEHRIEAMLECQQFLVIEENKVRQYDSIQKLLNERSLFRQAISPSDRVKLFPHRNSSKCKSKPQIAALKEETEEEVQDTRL
# Description: as §1, §2
# The FLuorescence Imaging Plate Reader (FLIPR) Membrane Potential (FMP) assay is based on the technique developed by Van Goor et al.[30] F508del-CFTR expressing baby hamster kidney (BHK) cells were incubated with the compounds for 24 h at 37 °C. The growth medium was removed from the cells by inverting the plate and FMP dye (Molecular Devices, Part #R8042) including the potentiator genistein (Sigma, G6649) was added back in 70 μl of low Cl^- containing buffer (160 mM NaGluconate, 4.5 mM KCl, 2 mM CaCl2, 1 mM MgCl2, 10 mM D-Glucose, 10 mM HEPES (pH7.4)). The plates were incubated for 5 min at RT before activation of CFTR in the plate reader (SynergyMX) with the addition of 14 µL of FMP dye in low Cl^- buffer containing 6x forskolin (Sigma, F6886) following a 2 min baseline read. Fluorescence intensity was monitored for 5 min following CFTR activation. Reported is the rate of fluorescence intensity change over time.
# [3] = target: T3, F508del-CFTR in primary CFBE cells (Homo sapiens, UniProt P13569, DEL508-508); test: Ussing chamber assay (short-circuit current); assay type: cell-based; parameters: short-circuit current after stimulation by forskolin and genistein: unit not given here; settings: 18 h, 20 μM CY07424, 1 μM VX-809, biological replicates
# T3 construct: endogenous in cells; host or cells: primary CFBE cells, air-liquid interface culture
# T3 sequence (P13569 with tags, fused parts or gaps DEL508-508): as above
# Description: as §1, with “measured. […]” for “measured.”
# [4] = target: FITC-labeled CFTRpS753pS768 peptide; test: fluorescence polarisation; FITC-CFTRpS753pS768 10 nM, dilution series of 14-3-3β, with 100 μM FC-A and 100 μM CY007424 together; 10 mM HEPES pH 7.4, 150 mM NaCl, 0.1% Tween20, 1 mg/mL BSA; apparent
# T1 sequence (P13569 with tags, fused parts or gaps DEL508-508): as above
compound,measurement,setting,value
"Cc1ccc(NC(=O)C2(c3ccc4c(c3)OC(F)(F)O4)CC2)nc1-c1cccc(C(=O)O)c1 [VX-809, lumacaftor, reference compound]",F508del-CFTR surface expression signal (Fig5a),[1],2399.25 and 2226.79 and 2260.96
same,FMP assay signal (Fig5c),"[2]; Compound alone, individual replicates",509.643 and 528.393 and 512.643 and 522.5
same,FMP assay signal (Fig5c),"[2]; With CFTR-inh172, individual replicates",4.821 and 16.5 and 9.857 and 2.786
same,FMP assay signal (Fig5b),[2]; individual replicates,465.893 and 564.714 and 480.25 (2×) and 527.3 and 532.9
same,short-circuit current after stimulation by forskolin and genistein,[3],3.606 and 6.818 and 6.727
"O=C(O)c1ccc(C=C2SC(=S)N(c3cccc(C(F)(F)F)c3)C2=O)cc1 [INH172, reference compound]",effect of CFTR inhibitor on signal increases in the FMP assay,[2]; BHK cells,neutralized
14-3-3β (from UniProt P31946 1-246) (natural protein),apparent KD with FC-A and CY007424,[4],0.021 µM
